Results taken from patent publication US11098055B2, “Ester ACC inhibitors and uses thereof” (Gilead Apollo, LLC, priority 2015, dated 2021).
In brackets after ≈: the same amount, converted by molar mass.

Tests used:
C. albicans ATCC 90028 = assay: Anti-Fungal (Candida) Activity Assay, broth microtiter MIC; assay type: cell-based; conditions: ATCC90028, 48 h, 3 replicates, MIC read at 48 h
In short: (§1)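 Broth microdilution per CLSI M27-A3 in RPMI 1640 + MOPS, at a final inoculum of 2.5×10^3 CFU/mL. Compound DMSO stocks were diluted in water to a 128 μg/mL working solution. MIC was read visually against the growth control at 48 h.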

[1] = system: C. parapsilosis ATCC 22019; assay: as above; assay type: cell-based; conditions: Lodderomyces parapsilosis, ATCC22019, 48 h, 3 replicates, MIC read at 48 h
In short: as §1

fACC2 = fACC2 (UniProt Q00955); assay: In vitro ACC2 inhibition assay (ADP-Glo), fungal ACC2; assay type: biochemical
In short: (§2)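 ADP-Glo luminescent ADP detection with 5 nM ACC2, 20 μM ATP, 20 μM acetyl-CoA, 12 mM NaHCO3, 2 mM DTT, 5% DMSO; compound (30 μM-0.00051 μM, 11 points) preincubated 15 min, reaction 60 min at room temperature. Percent inhibition against DMSO and positive controls; IC50 by four-parameter nonlinear fit.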

C. krusei ATCC 6258 = assay: Anti-Fungal (Candida) Activity Assay, broth microtiter MIC; assay type: cell-based, Candida krusei; conditions: Pichia kudriavzevii, ATCC6258, 48 h, 3 replicates, MIC read at 48 h
In short: as §1

hACC2 = hACC2 (Homo sapiens, UniProt O00763); assay: In vitro ACC2 inhibition assay (ADP-Glo), human ACC2; assay type: biochemical
In short: as §2

Chain of fACC2 (Q00955 whole entry): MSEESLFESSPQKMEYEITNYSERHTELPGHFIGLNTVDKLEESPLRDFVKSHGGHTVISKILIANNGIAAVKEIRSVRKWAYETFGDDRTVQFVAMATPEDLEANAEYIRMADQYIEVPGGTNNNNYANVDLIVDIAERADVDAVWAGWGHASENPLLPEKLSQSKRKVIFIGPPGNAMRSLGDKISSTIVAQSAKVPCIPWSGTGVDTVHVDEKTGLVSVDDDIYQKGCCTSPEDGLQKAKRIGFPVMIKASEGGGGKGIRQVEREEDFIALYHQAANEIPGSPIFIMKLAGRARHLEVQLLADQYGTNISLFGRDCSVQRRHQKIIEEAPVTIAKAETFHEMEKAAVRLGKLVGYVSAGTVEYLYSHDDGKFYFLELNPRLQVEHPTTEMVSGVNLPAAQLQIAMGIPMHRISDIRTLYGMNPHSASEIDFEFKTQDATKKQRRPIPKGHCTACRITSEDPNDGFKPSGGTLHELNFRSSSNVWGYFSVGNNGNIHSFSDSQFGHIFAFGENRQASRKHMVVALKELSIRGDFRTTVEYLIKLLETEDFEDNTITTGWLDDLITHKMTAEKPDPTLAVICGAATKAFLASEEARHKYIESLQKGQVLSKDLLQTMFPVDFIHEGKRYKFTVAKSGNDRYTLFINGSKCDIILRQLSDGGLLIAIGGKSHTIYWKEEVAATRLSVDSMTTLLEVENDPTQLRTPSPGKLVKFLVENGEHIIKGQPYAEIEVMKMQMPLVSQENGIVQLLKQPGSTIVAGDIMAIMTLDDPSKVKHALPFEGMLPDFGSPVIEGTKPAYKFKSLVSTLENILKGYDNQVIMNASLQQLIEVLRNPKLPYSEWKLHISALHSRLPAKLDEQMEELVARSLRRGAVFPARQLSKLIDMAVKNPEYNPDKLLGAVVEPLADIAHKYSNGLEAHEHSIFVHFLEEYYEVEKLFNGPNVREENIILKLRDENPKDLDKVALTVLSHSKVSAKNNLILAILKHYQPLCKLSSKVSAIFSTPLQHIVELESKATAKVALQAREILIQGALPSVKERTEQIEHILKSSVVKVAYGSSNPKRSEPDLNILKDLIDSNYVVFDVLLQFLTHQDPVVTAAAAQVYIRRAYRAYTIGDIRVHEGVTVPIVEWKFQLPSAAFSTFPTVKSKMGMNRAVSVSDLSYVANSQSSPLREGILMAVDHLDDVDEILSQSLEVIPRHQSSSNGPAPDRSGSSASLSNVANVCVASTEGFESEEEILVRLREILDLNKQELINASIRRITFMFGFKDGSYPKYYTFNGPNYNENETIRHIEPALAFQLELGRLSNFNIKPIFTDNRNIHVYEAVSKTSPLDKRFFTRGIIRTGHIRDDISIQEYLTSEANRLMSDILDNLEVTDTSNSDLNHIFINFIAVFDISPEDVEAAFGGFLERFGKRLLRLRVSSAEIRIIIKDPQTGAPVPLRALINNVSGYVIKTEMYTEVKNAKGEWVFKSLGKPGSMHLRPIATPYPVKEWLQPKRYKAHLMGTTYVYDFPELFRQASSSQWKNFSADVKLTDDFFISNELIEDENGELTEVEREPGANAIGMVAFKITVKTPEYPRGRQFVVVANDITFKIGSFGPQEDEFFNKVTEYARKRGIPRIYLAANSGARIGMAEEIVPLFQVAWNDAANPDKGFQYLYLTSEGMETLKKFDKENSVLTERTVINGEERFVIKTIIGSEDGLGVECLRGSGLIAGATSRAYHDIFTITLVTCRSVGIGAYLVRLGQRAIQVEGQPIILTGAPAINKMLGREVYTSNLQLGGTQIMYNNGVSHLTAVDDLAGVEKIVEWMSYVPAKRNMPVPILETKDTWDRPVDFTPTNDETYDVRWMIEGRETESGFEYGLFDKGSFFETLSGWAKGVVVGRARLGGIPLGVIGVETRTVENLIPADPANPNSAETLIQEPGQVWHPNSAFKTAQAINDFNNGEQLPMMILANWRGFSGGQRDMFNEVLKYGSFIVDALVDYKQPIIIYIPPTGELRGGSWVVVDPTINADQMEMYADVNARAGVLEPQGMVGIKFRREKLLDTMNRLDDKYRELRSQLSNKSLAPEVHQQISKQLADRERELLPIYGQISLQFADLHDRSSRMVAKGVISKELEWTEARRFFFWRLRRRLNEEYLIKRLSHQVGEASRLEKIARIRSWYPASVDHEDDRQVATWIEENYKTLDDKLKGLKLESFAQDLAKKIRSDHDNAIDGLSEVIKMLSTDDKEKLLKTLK
Chain of hACC2 (O00763 whole entry): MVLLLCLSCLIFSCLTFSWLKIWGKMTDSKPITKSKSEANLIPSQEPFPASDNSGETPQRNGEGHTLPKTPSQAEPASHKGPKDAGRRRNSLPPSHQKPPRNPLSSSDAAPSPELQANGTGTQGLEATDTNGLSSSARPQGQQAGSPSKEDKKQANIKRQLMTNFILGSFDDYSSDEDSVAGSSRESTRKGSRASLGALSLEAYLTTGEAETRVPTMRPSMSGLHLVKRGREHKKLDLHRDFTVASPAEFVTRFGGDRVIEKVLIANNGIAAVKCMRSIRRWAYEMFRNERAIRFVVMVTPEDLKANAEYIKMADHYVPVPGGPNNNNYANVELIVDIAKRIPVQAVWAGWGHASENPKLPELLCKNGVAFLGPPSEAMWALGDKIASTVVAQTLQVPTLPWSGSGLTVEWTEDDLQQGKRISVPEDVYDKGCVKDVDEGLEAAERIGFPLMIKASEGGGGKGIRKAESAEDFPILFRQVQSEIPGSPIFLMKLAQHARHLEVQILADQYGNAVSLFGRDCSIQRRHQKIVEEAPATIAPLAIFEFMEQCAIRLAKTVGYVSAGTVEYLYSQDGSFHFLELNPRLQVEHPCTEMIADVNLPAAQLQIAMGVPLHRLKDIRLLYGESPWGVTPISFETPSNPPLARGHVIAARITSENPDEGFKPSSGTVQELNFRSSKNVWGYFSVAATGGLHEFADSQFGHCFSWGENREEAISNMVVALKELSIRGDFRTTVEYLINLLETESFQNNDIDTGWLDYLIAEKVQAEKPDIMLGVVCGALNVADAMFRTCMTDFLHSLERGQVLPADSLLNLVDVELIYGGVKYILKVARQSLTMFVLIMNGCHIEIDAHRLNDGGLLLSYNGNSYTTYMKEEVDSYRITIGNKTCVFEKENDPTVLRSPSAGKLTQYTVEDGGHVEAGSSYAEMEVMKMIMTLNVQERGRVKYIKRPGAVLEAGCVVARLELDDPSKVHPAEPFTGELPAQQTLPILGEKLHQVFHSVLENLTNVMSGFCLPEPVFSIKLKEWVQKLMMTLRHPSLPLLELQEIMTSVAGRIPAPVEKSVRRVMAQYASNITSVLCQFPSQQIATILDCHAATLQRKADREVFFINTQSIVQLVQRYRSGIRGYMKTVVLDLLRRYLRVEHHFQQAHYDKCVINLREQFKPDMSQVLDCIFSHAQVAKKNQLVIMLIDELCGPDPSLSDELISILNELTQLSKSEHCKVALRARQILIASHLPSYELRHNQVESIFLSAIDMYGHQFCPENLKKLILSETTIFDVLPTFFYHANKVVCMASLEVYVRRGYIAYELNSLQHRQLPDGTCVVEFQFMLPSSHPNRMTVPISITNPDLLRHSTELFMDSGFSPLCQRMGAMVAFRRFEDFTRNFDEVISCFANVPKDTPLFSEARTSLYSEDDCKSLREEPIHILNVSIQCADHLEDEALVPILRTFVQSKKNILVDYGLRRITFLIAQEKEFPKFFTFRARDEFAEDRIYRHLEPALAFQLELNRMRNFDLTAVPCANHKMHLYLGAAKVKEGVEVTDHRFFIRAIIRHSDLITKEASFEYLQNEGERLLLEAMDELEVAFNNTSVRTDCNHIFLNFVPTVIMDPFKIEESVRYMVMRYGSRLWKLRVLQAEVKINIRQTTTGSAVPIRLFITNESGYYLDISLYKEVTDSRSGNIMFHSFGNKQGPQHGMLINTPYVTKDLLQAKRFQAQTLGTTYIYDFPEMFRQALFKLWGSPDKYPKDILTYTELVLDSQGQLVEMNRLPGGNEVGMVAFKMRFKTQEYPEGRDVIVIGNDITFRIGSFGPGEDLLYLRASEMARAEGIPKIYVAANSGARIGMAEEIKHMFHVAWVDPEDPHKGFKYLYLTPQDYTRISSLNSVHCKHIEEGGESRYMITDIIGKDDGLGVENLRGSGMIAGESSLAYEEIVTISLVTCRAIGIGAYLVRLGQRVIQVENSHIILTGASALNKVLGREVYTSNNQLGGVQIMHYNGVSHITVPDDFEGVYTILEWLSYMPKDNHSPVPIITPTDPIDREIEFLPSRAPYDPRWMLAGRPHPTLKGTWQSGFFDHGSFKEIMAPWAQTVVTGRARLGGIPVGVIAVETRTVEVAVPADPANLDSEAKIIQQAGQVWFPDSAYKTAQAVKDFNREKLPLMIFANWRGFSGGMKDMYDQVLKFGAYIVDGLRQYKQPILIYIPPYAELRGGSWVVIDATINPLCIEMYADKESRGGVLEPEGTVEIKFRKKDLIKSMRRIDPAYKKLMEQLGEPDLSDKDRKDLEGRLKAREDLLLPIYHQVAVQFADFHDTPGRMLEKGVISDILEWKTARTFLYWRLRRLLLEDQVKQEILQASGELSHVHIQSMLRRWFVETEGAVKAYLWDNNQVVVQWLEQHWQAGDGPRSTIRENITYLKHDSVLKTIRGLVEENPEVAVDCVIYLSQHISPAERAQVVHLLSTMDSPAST

| SMILES | MIC (C. albicans ATCC 90028; Table 3b (additional results)) | MIC ([1]; Table 3b (additional results)) | IC50 (fACC2; Table 2b (additional results)) | MIC (C. krusei ATCC 6258; Table 3b (additional results)) | IC50 (hACC2; Table 2b (additional results)) | MIC (C. albicans ATCC 90028; Table 3a) | MIC ([1]; Table 3a) | IC50 (fACC2; Table 2a) | MIC (C. krusei ATCC 6258; Table 3a) | IC50 (hACC2; Table 2a) |
| --- | --- | --- | --- | --- | --- | --- | --- | --- | --- | --- |
| CCOC(=O)c1sc2c(c1C)c(=O)n([C@@H](C)C(=O)N(C)C(C)C)c(=O)n2C[C@H](OCCC#N)c1cc(F)ccc1OC [Compound I-28, ethyl 1-((R)-2-(2-cyanoethoxy)-2-(5-fluoro-2-methoxy-phenyl)-ethyl)-3-((S)-1-(isopropyl(methyl)amino)-1-oxopropan-2-yl)-5-methyl-2,4-dioxo-1,2,3,4-tetrahydrothieno[2,3-d]pyrimidine-6-carboxylate] | 2.1 to 4 µg/mL (≈ 3.48 to 6.64 µM) | 2.1 to 4 µg/mL (≈ 3.48 to 6.64 µM) | 0.3 to 3 nM | 0.25 to 1 µg/mL (≈ 0.415 to 1.66 µM) | 3 to 10 nM | – | – | – | – | – |
| CCOC(=O)c1sc2c(c1C)c(=O)n(C(C)(C)C(=O)NC(C)C)c(=O)n2C[C@H](OCCC#N)c1ccccc1OC [Compound I-31, ethyl (R)-1-(2-(2-cyanoethoxy)-2-(2-methoxyphenyl)ethyl)-3-(1-(isopropylamino)-2-methyl-1-oxopropan-2-yl)-5-methyl-2,4-dioxo-1,2,3,4-tetrahydrothieno[2,3-d]pyrimidine-6-carboxylate] | 0.25 to 1 µg/mL (≈ 0.428 to 1.71 µM) | 1.1 to 2 µg/mL (≈ 1.88 to 3.42 µM) | 0.3 to 3 nM | 0.25 to 1 µg/mL (≈ 0.428 to 1.71 µM) | 3 to 10 nM | – | – | – | – | – |
| CCOC(=O)c1sc2c(c1C)c(=O)n(C(C)(C)C(=O)NC(C)C)c(=O)n2C[C@H](OCCS(C)(=O)=O)c1cc(F)ccc1OC [Compound I-36, ethyl (R)-1-(2-(5-fluoro-2-methoxyphenyl)-2-(2-(methylsulfonyl)ethoxy)ethyl)-3-(1-(isopropylamino)-2-methyl-1-oxopropan-2-yl)-5-methyl-2,4-dioxo-1,2,3,4-tetrahydrothieno[2,3-d]pyrimidine-6-carboxylate] | 0.25 to 1 µg/mL (≈ 0.381 to 1.52 µM) | 2.1 to 4 µg/mL (≈ 3.2 to 6.1 µM) | 0.3 to 3 nM | 2.1 to 4 µg/mL (≈ 3.2 to 6.1 µM) | 10 to 40 nM | – | – | – | – | – |
| CCOC(=O)c1sc2c(c1C)c(=O)n([C@@H](C)C(=O)NC(C)C)c(=O)n2C[C@H](O)c1cc(F)ccc1OC [Compound I-44, ethyl 1-((R)-2-(5-fluoro-2-methoxyphenyl)-2-hydroxyethyl)-3-((S)-1-(isopropylamino)-1-oxopropan-2-yl)-5-methyl-2,4-dioxo-1,2,3,4-tetrahydrothieno[2,3-d]pyrimidine-6-carboxylate] | 2.1 to 4 µg/mL (≈ 3.92 to 7.47 µM) | 2.1 to 4 µg/mL (≈ 3.92 to 7.47 µM) | 10 to 40 nM | 2.1 to 4 µg/mL (≈ 3.92 to 7.47 µM) | ≥ 40 nM | – | – | – | – | – |
| CCOC(=O)c1sc2c(c1C)c(=O)n(C(C)(C)C(=O)NC(C)C)c(=O)n2C[C@H](OCC#N)c1cc(F)ccc1OC [Compound I-33, ethyl (R)-1-(2-(cyanomethoxy)-2-(5-fluoro-2-methoxy-phenyl)ethyl)-3-(1-(isopropylamino)-2-methyl-1-oxopropan-2-yl)-5-methyl-2,4-dioxo-1,2,3,4-tetrahydrothieno[2,3-d]pyrimidine-6-carboxylate] | 0.25 to 1 µg/mL (≈ 0.425 to 1.7 µM) | 2.1 to 4 µg/mL (≈ 3.57 to 6.8 µM) | 0.3 to 3 nM | 2.1 to 4 µg/mL (≈ 3.57 to 6.8 µM) | 3 to 10 nM | – | – | – | – | – |
| CCOC(=O)c1sc2c(c1C)c(=O)n(C(C)(C)C(=O)NC(C)C)c(=O)n2C[C@H](OC[C@H](C)C#N)c1cc(F)ccc1OC [Compound I-34, ethyl 1-((R)-2-((R)-2-cyanopropoxy)-2-(5-fluoro-2-methoxyphenyl)ethyl)-3-(1-(isopropylamino)-2-methyl-1-oxopropan-2-yl)-5-methyl-2,4-dioxo-1,2,3,4-tetrahydrothieno[2,3-d]pyrimidine-6-carboxylate] | 0.25 to 1 µg/mL (≈ 0.405 to 1.62 µM) | 2.1 to 4 µg/mL (≈ 3.41 to 6.49 µM) | 0.3 to 3 nM | 2.1 to 4 µg/mL (≈ 3.41 to 6.49 µM) | 10 to 40 nM | – | – | – | – | – |
| CCOC(=O)c1sc2c(c1C)c(=O)n([C@@H](C)C(=O)NC(C)C)c(=O)n2C[C@H](OCCC#N)c1cc(F)ccc1OC [Compound I-20, ethyl 1-((R)-2-(2-cyanoethoxy)-2-(5-fluoro-2-methoxy-phenyl)ethyl)-3-((S)-1-(isopropylamino)-1-oxopropan-2-yl)-5-methyl-2,4-dioxo-1,2,3,4-tetrahydrothieno[2,3-d]pyrimidine-6-carboxylate] | 2.1 to 4 µg/mL (≈ 3.57 to 6.8 µM) | 2.1 to 4 µg/mL (≈ 3.57 to 6.8 µM) | 0.3 to 3 nM | 1.1 to 2 µg/mL (≈ 1.87 to 3.4 µM) | 3 to 10 nM | – | – | – | – | – |
| CCOC(=O)c1sc2c(c1C)c(=O)n([C@H](C)C(=O)N(C)C(C)C)c(=O)n2C[C@H](OCCC#N)c1cc(F)ccc1OC [Compound I-27, ethyl 1-((R)-2-(2-cyanoethoxy)-2-(5-fluoro-2-methoxy-phenyl)ethyl)-3-((R)-1-(isopropyl(methyl)amino)-1-oxopropan-2-yl)-5-methyl-2,4-dioxo-1,2,3,4-tetrahydrothieno[2,3-d]pyrimidine-6-carboxylate] | 2.1 to 4 µg/mL (≈ 3.48 to 6.64 µM) | 2.1 to 4 µg/mL (≈ 3.48 to 6.64 µM) | 0.3 to 3 nM | 0.25 to 1 µg/mL (≈ 0.415 to 1.66 µM) | 0.3 to 3 nM | – | – | – | – | – |
| CCOC(=O)c1sc2c(c1C)c(=O)n(C(C)(C)C(=O)NC(C)C)c(=O)n2C[C@H](OCCC#N)c1cc(F)ccc1OC [Compound I-15, (R)-ethyl 1-(2-(2-cyanoethoxy)-2-(5-fluoro-2-methoxy-phenyl)ethyl)-3-(1-(isopropylamino)-2-methyl-1-oxopropan-2-yl)-5-methyl-2,4-dioxo-1,2,3,4-tetrahydrothieno[2,3-d]pyrimidine-6-carboxylate] | 0.25 to 1 µg/mL (≈ 0.415 to 1.66 µM) | 2.1 to 4 µg/mL (≈ 3.48 to 6.64 µM) | 0.3 to 3 nM | 0.25 to 1 µg/mL (≈ 0.415 to 1.66 µM) | 3 to 10 nM | 0.25 to 1 µg/mL (≈ 0.415 to 1.66 µM) | 0.25 to 1 µg/mL (≈ 0.415 to 1.66 µM) | 0.6 to 3 nM | 0.25 to 1 µg/mL (≈ 0.415 to 1.66 µM) | 10 to 40 nM |
| CCOC(=O)c1sc2c(c1C)c(=O)n(C(C)(C)C(=O)N1CCCC1)c(=O)n2C[C@H](OC(C)C)c1ccccc1OC [Compound I-7, (R)-ethyl 1-(2-isopropoxy-2-(2-methoxyphenyl)ethyl)-5-methyl-3-(2-methyl-1-oxo-1-(pyrrolidin-1-yl)propan-2-yl)-2,4-dioxo-1,2,3,4-tetrahydrothieno[2,3-d]pyrimidine-6-carboxylate] | 2.1 to 4 µg/mL (≈ 3.59 to 6.83 µM) | 2.1 to 4 µg/mL (≈ 3.59 to 6.83 µM) | 0.3 to 3 nM | 2.1 to 4 µg/mL (≈ 3.59 to 6.83 µM) | 10 to 40 nM | 2.1 to 4 µg/mL (≈ 3.59 to 6.83 µM) | 2.1 to 4 µg/mL (≈ 3.59 to 6.83 µM) | 0.6 to 3 nM | 2.1 to 4 µg/mL (≈ 3.59 to 6.83 µM) | 10 to 40 nM |
| CCNC(=O)C(C)(C)n1c(=O)c2c(C)c(C(=O)OCC)sc2n(C[C@H](OCCC#N)c2cc(F)ccc2OC)c1=O [Compound I-29, (R)-ethyl 1-(2-(2-cyanoethoxy)-2-(5-fluoro-2-methoxy-phenyl)ethyl)-3-(1-(ethylamino)-2-methyl-1-oxopropan-2-yl)-5-methyl-2,4-dioxo-1,2,3,4-tetrahydrothieno[2,3-d]pyrimidine-6-carboxylate] | 1.1 to 2 µg/mL (≈ 1.87 to 3.4 µM) | 2.1 to 4 µg/mL (≈ 3.57 to 6.8 µM) | 0.3 to 3 nM | 2.1 to 4 µg/mL (≈ 3.57 to 6.8 µM) | 3 to 10 nM | – | – | – | – | – |
| CCOC(=O)c1sc2c(c1C)c(=O)n(C(C)(C)C(=O)NC(C)C)c(=O)n2C[C@H](OCC(C)(C)C#N)c1ccccc1OC [Compound I-38, ethyl (R)-1-(2-(2-cyano-2-methylpropoxy)-2-(2-methoxyphenyl)ethyl)-3-(1-(isopropylamino)-2-methyl-1-oxopropan-2-yl)-5-methyl-2,4-dioxo-1,2,3,4-tetrahydrothieno[2,3-d]pyrimidine-6-carboxylate] | 0.25 to 1 µg/mL (≈ 0.408 to 1.63 µM) | 2.1 to 4 µg/mL (≈ 3.43 to 6.53 µM) | 0.3 to 3 nM | > 4.1 µg/mL | 10 to 40 nM | – | – | – | – | – |
| CCOC(=O)c1sc2c(c1C)c(=O)n(C(C)(C)C(=O)NC(C)C)c(=O)n2CCc1cc(F)ccc1OC [Compound I-40, ethyl 1-(5-fluoro-2-methoxyphenethyl)-3-(1-(isopropylamino)-2-methyl-1-oxopropan-2-yl)-5-methyl-2,4-dioxo-1,2,3,4-tetrahydrothieno[2,3-d]pyrimidine-6-carboxylate] | 2.1 to 4 µg/mL (≈ 3.94 to 7.5 µM) | 0.25 to 1 µg/mL (≈ 0.468 to 1.87 µM) | 3 to 10 nM | 2.1 to 4 µg/mL (≈ 3.94 to 7.5 µM) | 10 to 40 nM | – | – | – | – | – |
| CCOC(=O)c1sc2c(c1C)c(=O)n(C(C)(C)C(=O)NC(C)C)c(=O)n2C[C@H](OC1CCOCC1)c1ccccc1OC [Compound I-8, (R)-ethyl 3-(1-(isopropylamino)-2-methyl-1-oxopropan-2-yl)-1-(2-(2-methoxyphenyl)-2-((tetrahydro-2H-pyran-4-yl)oxy)ethyl)-5-methyl-2,4-dioxo-1,2,3,4-tetrahydrothieno[2,3-d]pyrimidine-6-carboxylate] | 1.1 to 2 µg/mL (≈ 1.79 to 3.25 µM) | 2.1 to 4 µg/mL (≈ 3.41 to 6.5 µM) | 0.3 to 3 nM | 2.1 to 4 µg/mL (≈ 3.41 to 6.5 µM) | 10 to 40 nM | 1.1 to 2 µg/mL (≈ 1.79 to 3.25 µM) | 1.1 to 2 µg/mL (≈ 1.79 to 3.25 µM) | 0.6 to 3 nM | 0.25 to 1 µg/mL (≈ 0.406 to 1.62 µM) | 10 to 40 nM |
| CCOC(=O)c1sc2c(c1C)c(=O)n(C(C)(C)C(=O)N1CCCCC1)c(=O)n2C[C@H](OC(C)C)c1ccccc1OC [Compound I-6, (R)-ethyl 1-(2-isopropoxy-2-(2-methoxyphenyl)ethyl)-5-methyl-3-(2-methyl-1-oxo-1-(piperidin-1-yl)propan-2-yl)-2,4-dioxo-1,2,3,4-tetrahydrothieno[2,3-d]pyrimidine-6-carboxylate] | 2.1 to 4 µg/mL (≈ 3.5 to 6.67 µM) | 2.1 to 4 µg/mL (≈ 3.5 to 6.67 µM) | 0.3 to 3 nM | 2.1 to 4 µg/mL (≈ 3.5 to 6.67 µM) | 10 to 40 nM | 2.1 to 4 µg/mL (≈ 3.5 to 6.67 µM) | > 4.1 µg/mL | 0.6 to 3 nM | 2.1 to 4 µg/mL (≈ 3.5 to 6.67 µM) | 10 to 40 nM |
